Earlier results in patent publication US20160106679A1, “TABLET WITH INCREASED DRUG LOAD OF ODANACATIB” (SANDOZ AG, priority 2013, published 2016).
Read-outs that look alike come from different tables or passages of the source.

Key:
[1] = highly crystalline odanacatib

## CC(C)(F)C[C@H](N[C@@H](c1ccc(-c2ccc(S(C)(=O)=O)cc2)cc1)C(F)(F)F)C(=O)NC1(C#N)CC1 [Odanacatib, odanacatib]
patients; patients treated once weekly with 20-50 mg
  BMD change at lumbar spine, hip and femoral neck: increases in lumbar spine, hip and femoral neck BMD
patients; patients treated with low doses
  BMD change at lumbar spine, hip and femoral neck: decreases in BMD at the same sites
[1]
  aqueous solubility: low
